Experimental data taken from patent publication US20230263822A1, “MODULATION OF FACTOR 11 EXPRESSION” (Ionis Pharmaceuticals, Inc., priority 2008, published 2023).
Strand notation (5' to 3'): a small letter for the sugar, then the base; units joined by * are phosphorothioate-linked, units joined directly phosphodiester-linked; [ ] holds rarer units or linkages, { } end groups; capitals alone tell only the bases. e = 2'-O-(2-methoxyethyl) (MOE); [5mC] = 5-methylcytosine; d = 2'-deoxy (DNA)

Key:
[1] = Viscosity of ISIS antisense oligonucleotides, micro-viscometer at 25 °C (Example 47); format: physicochemical; conditions: for Concentration: concentration of the viscosity sample, UV reading at 260 nM at 85° C.; for Viscosity: in water, micro-viscometer at 25° C., at the concentration of the same line
Experimental: The viscosity of antisense oligonucleotides targeting human Factor 11 was measured with the aim of screening out antisense oligonucleotides which have a viscosity more than 40 cP at a concentration of 165-185 mg/mL.
ISIS oligonucleotides (32-35 mg) were weighed into a glass vial, 120 μL of water was added and the antisense oligonucleotide was dissolved into solution by heating the vial at 50° C. Part of (75 μL) the pre-heated sample was pipetted to a micro-viscometer (Cambridge). The temperature of the micro-viscometter was set to 25° C. and the viscosity of the sample was measured. Another part (20 μL) of the pre-heated sample was pipetted into 10 mL of water for UV reading at 260 nM at 85° C. (Cary UV instrument).

human Factor 11 mRNA [2] = assay: Antisense inhibition of human Factor 11 in HepG2 cells, electroporation, 8,000 nM (Example 30); format: cell-based; conditions: electroporation, 8,000 nM antisense oligonucleotide
In short: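 HepG2 cells electroporated with 8,000 nM 5-10-5, 5-8-5 or 6-8-6 MOE gapmers (phosphorothioate, 5-methylcytidine), ~24 h. Factor 11 mRNA quantified by qRT-PCR, normalised to RIBOGREEN total RNA. Reported as percent inhibition versus untreated cells.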

human Factor 11 mRNA [3] = assay: Dose-dependent antisense inhibition of human Factor 11 in HepG2 cells, lipofectin 9.375-150 nM (Example 2); format: cell-based; conditions: ~16 h
Experimental: Cells were plated at a density of 10,000 cells per well and transfected using lipofectin reagent with 9.375 nM, 18.75 nM, 37.5 nM, 75 nM, and 150 nM concentrations of antisense oligonucleotide, as specified in Table 3. After a treatment period of approximately 16 hours, RNA was isolated from the cells and Factor 11 mRNA levels were measured by quantitative real-time PCR. Human Factor 11 primer probe set RTS 2966 (forward sequence: […], incorporated herein as SEQ ID NO: 3; reverse sequence: […], incorporated herein as SEQ ID NO: 4; probe sequence: TTGTCTACTGAAGCACACCCAAACAGGGAX, incorporated herein as SEQ ID NO: 5) was used to measure mRNA levels. Factor 11 mRNA levels were adjusted according to total RNA content, as measured by RIBOGREEN. Results are presented as percent inhibition of Factor 11, relative to untreated control cells.

human Factor 11 mRNA [4] = assay: Antisense inhibition of human Factor 11 in HepG2 cells, lipofectin, 75 nM (Example 1); format: cell-based; conditions: 75 nM antisense oligonucleotide, ~24 h, relative to untreated control cells, gapmers targeted to SEQ ID NO: 1
In short: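 HepG2 cells transfected via lipofectin with 75 nM antisense oligonucleotide (5-10-5 MOE gapmers, 20-mers, phosphorothioate, 5-methylcytidines), treated ~24 h. Factor 11 mRNA quantified by real-time PCR, normalised to RIBOGREEN total RNA; percent inhibition versus untreated cells.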

human Factor 11 mRNA [5] = assay: Antisense inhibition of human Factor 11 in HepG2 cells by microwalk gapmers, lipofectin, 75 nM (Example 3); format: cell-based
In short: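 HepG2 cells (10,000/well) were transfected via lipofectin with 75 nM 20-mer MOE gapmers (phosphorothioate, 5-methyl-C) for about 24 h. Factor 11 mRNA was measured by qRT-PCR, normalized to RIBOGREEN total RNA, and given as percent inhibition versus untreated cells.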

human Factor 11 mRNA [6] = assay: Dose-dependent inhibition of human Factor 11 in HepG2 cells, lipofectin 9.375-75 nM (Example 4); format: cell-based; conditions: for percent inhibition of Factor 11 at 9.375 nM / percent inhibition of Factor 11 at 18.75 nM / percent inhibition of Factor 11 at 37.5 nM / percent inhibition of Factor 11 at 75 nM: relative to untreated control cells
In short: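 HepG2 cells transfected via lipofectin with antisense oligonucleotide at 9.375, 18.75, 37.5 or 75 nM for about 16 h. Factor 11 mRNA quantified by real-time RT-PCR (primer probe set RTS 2966) and normalized to total RNA (RIBOGREEN). Results expressed as percent inhibition versus untreated cells.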

human Factor 11 mRNA [7] = assay: Dose-dependent inhibition of human Factor 11 in HepG2 cells, electroporation 0.7-20 uM (Example 4); format: cell-based; conditions: for percent inhibition of Factor 11 at 0.7 μM / percent inhibition of Factor 11 at 2.2 μM / percent inhibition of Factor 11 at 6.7 μM / percent inhibition of Factor 11 at 20 μM: relative to untreated control cells
In short: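 HepG2 cells electroporated with antisense gapmers at 0.7, 2.2, 6.7 and 20 μM, treated ~16 h. Factor 11 mRNA quantified by qRT-PCR (primer probe set RTS 2966), normalised to RIBOGREEN total RNA; expressed as percent inhibition versus untreated control cells.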

human Factor 11 mRNA [8] = assay: Dose-dependent inhibition of human Factor 11 in HepG2 cells, electroporation 123.46-10,000 nM (Example 31); format: cell-based; conditions: for Percent inhibition of Factor 11 mRNA at 123.47 nM / Percent inhibition of Factor 11 mRNA at 370.37 nM / IC50: electroporation; for Percent inhibition of Factor 11 mRNA at 123.47 nM / Percent inhibition of Factor 11 mRNA at 370.37 nM / Percent inhibition of Factor 11 mRNA at 1,111.11 nM / Percent inhibition of Factor 11 mRNA at 3,333.33 nM / Percent inhibition of Factor 11 mRNA at 10,000.0 nM: approx. 16 hours, relative to untreated control cells; for Percent inhibition of Factor 11 mRNA at 1,111.11 nM: electroporation, 1,111.11 nM; for Percent inhibition of Factor 11 mRNA at 3,333.33 nM: electroporation, 3,333.33 nM; for Percent inhibition of Factor 11 mRNA at 10,000.0 nM: electroporation, 10,000.0 nM; for IC50: Factor 11 mRNA expression
Experimental: Cells were plated at a density of 20,000 cells per well and transfected using electroporation with 123.46 nM, 370.37 nM, 1,111.11 nM, 3,333.33 nM and 10,000 nM concentrations of antisense oligonucleotide, as specified in Table 45. After a treatment period of approximately 16 hours, RNA was isolated from the cells and Factor 11 mRNA levels were measured by quantitative real-time PCR. Human Factor 11 primer probe set RTS 2966 was used to measure mRNA levels. Factor 11 mRNA levels were adjusted according to total RNA content, as measured by RIBOGREEN. Results are presented as percent inhibition of Factor 11, relative to untreated control cells.

[9] = HepG2, lipofectin, ~24 h, gapmers targeted to nucleobases 656 to 704 of SEQ ID NO: 1

Row | Substance | Concentration [1] | Viscosity [1] | Percent inhibition of human Factor 11 mRNA levels (human Factor 11 mRNA [2]) | percent inhibition of Factor 11 at 9.375 nM (human Factor 11 mRNA [3]) | percent inhibition of Factor 11 at 18.75 nM (human Factor 11 mRNA [3]) | percent inhibition of Factor 11 at 37.5 nM (human Factor 11 mRNA [3]) | percent inhibition of Factor 11 at 75 nM (human Factor 11 mRNA [3]) | percent inhibition of Factor 11 at 150 nM (human Factor 11 mRNA [3]) | IC50 (human Factor 11 mRNA [3]) | % inhibition (human Factor 11 mRNA [4]) | IC50 (human Factor 11 mRNA [6]) | percent inhibition of Factor 11 at 9.375 nM (human Factor 11 mRNA [6]) | percent inhibition of Factor 11 at 18.75 nM (human Factor 11 mRNA [6]) | percent inhibition of Factor 11 at 37.5 nM (human Factor 11 mRNA [6]) | percent inhibition of Factor 11 at 75 nM (human Factor 11 mRNA [6]) | IC50 (human Factor 11 mRNA [7]) | percent inhibition of Factor 11 at 0.7 μM (human Factor 11 mRNA [7]) | percent inhibition of Factor 11 at 2.2 μM (human Factor 11 mRNA [7]) | percent inhibition of Factor 11 at 6.7 μM (human Factor 11 mRNA [7]) | percent inhibition of Factor 11 at 20 μM (human Factor 11 mRNA [7]) | other results
1 | 445509 (antisense e[5mC]*eG*eG*eA*e[5mC]*eG*dG*d[5mC]*dA*dT*dT*dG*dG*dT*eG*e[5mC]*eA*e[5mC]*eA*eG) [compound 445509] | 167 mg/mL | >100 cP | 84% | – | – | – | – | – | – | – | – | – | – | – | – | – | – | – | – | – | –
2 | 445513 (antisense eG*e[5mC]*eA*eG*e[5mC]*eG*dG*dA*d[5mC]*dG*dG*d[5mC]*dA*dT*eT*eG*eG*eT*eG*e[5mC]) [compound 445513] | 167 mg/mL | 34 cP | 85% | – | – | – | – | – | – | – | – | – | – | – | – | – | – | – | – | – | –
3 | 413476 (antisense eT*eT*eG*eA*eG*dA*dT*dT*d[5mC]*dT*dT*dT*dG*dG*dG*e[5mC]*e[5mC]*eA*eT*eT) [compound 413476] | – | – | – | 26% | 44% | 64% | 73% | 82% | 25 nM | 88% | 21 nM | 24% | 58% | 62% | 77% | 900 nM | 40% | 69% | 88% | 93% | % inhibition (human Factor 11 mRNA [5]; HepG2 cells, lipofectin, gapmers targeted to nucleobases 1062 to 1091 of SEQ ID NO: 1): 93%
4 | 445498 (antisense eG*eG*eT*eG*e[5mC]*eA*d[5mC]*dA*dG*dT*dT*dT*d[5mC]*dT*eG*eG*e[5mC]*eA*eG*eG) [compound 445498] | 157 mg/mL | 21 cP | 83% | – | – | – | – | – | – | – | – | – | – | – | – | – | – | – | – | – | Percent inhibition of Factor 11 mRNA at 123.47 nM (human Factor 11 mRNA [8]): 3%; Percent inhibition of Factor 11 mRNA at 370.37 nM (human Factor 11 mRNA [8]): 1%; Percent inhibition of Factor 11 mRNA at 1,111.11 nM (human Factor 11 mRNA [8]): 27%; Percent inhibition of Factor 11 mRNA at 3,333.33 nM (human Factor 11 mRNA [8]): 50%; Percent inhibition of Factor 11 mRNA at 10,000.0 nM (human Factor 11 mRNA [8]): 58%; IC50 (human Factor 11 mRNA [8]): 4800 nM
5 | 445530 (antisense eG*e[5mC]*eA*eT*eT*dG*dG*dT*dG*d[5mC]*dA*d[5mC]*dA*eG*eT*eT*eT*e[5mC]) [compound 445530] | 177 mg/mL | 25 cP | 83% | – | – | – | – | – | – | – | – | – | – | – | – | – | – | – | – | – | –
6 | 445505 (antisense e[5mC]*eG*eG*e[5mC]*eA*eT*dT*dG*dG*dT*dG*d[5mC]*dA*d[5mC]*eA*eG*eT*eT*eT*e[5mC]) [compound 445505] | 155 mg/mL | 9 cP | 89% | – | – | – | – | – | – | – | – | – | – | – | – | – | – | – | – | – | Percent inhibition of Factor 11 mRNA at 123.47 nM (human Factor 11 mRNA [8]): 12%; Percent inhibition of Factor 11 mRNA at 370.37 nM (human Factor 11 mRNA [8]): 30%; Percent inhibition of Factor 11 mRNA at 1,111.11 nM (human Factor 11 mRNA [8]): 39%; Percent inhibition of Factor 11 mRNA at 3,333.33 nM (human Factor 11 mRNA [8]): 59%; Percent inhibition of Factor 11 mRNA at 10,000.0 nM (human Factor 11 mRNA [8]): 77%; IC50 (human Factor 11 mRNA [8]): 1800 nM
7 | 413467 (antisense eG*eG*eT*e[5mC]*e[5mC]*dA*d[5mC]*dA*dT*dA*dA*dA*dT*dG*dT*e[5mC]*eT*eT*eT*eG) [compound 413467] | – | – | – | 2% | 35% | 49% | 61% | 47% | 43 nM | 91% | 20 nM | 35% | 51% | 62% | 69% | 4200 nM | 5% | 31% | 65% | 89% | % inhibition (human Factor 11 mRNA [5]; [9]): 92%
8 | 412203 (antisense eA*eA*eT*eG*eT*d[5mC]*dT*dT*dT*dG*dT*dT*dG*d[5mC]*dA*eA*eG*e[5mC]*eG*e[5mC]) [compound 412203] | – | – | – | 29% | 15% | 61% | 77% | 82% | 33 nM | 91% | 24 nM | 33% | 40% | 62% | 74% | 2700 nM | 11% | 60% | 70% | 91% | % inhibition (human Factor 11 mRNA [5]; [9]): 97%
9 | 445504 (antisense eG*eG*e[5mC]*eA*eT*eT*dG*dG*dT*dG*d[5mC]*dA*d[5mC]*dA*eG*eT*eT*eT*e[5mC]*eT) [compound 445504] | 139 mg/mL | 20 cP | 87% | – | – | – | – | – | – | – | – | – | – | – | – | – | – | – | – | – | Percent inhibition of Factor 11 mRNA at 123.47 nM (human Factor 11 mRNA [8]): 8%; Percent inhibition of Factor 11 mRNA at 370.37 nM (human Factor 11 mRNA [8]): 20%; Percent inhibition of Factor 11 mRNA at 1,111.11 nM (human Factor 11 mRNA [8]): 38%; Percent inhibition of Factor 11 mRNA at 3,333.33 nM (human Factor 11 mRNA [8]): 53%; Percent inhibition of Factor 11 mRNA at 10,000.0 nM (human Factor 11 mRNA [8]): 68%; IC50 (human Factor 11 mRNA [8]): 2700 nM
